Results taken from patent publication EP2520566A1, “New Pharmaceutical Compounds” (Orion Corporation, priority 2011, dated 2012).

Molecular target: TRPA1 (Homo sapiens, UniProt O75762)
Assay: Determination of TRPA1 activity in vitro (TRPA1 antagonism in vitro), procedure of Wei et al., Anesthesiology 111 (2009) 147-154
Assay type: cell-based
From the text: EXPERIMENT 1: Determination of TRPA1 activity in vitro
The illustrative examples of the present invention were screened for TRPA1 activity according to a procedure described in Wei et al., Anesthesiology 111 (2009) 147-154. Table 1. TRPA1 antagonism in vitro.

Sequence of TRPA1 (O75762 whole entry): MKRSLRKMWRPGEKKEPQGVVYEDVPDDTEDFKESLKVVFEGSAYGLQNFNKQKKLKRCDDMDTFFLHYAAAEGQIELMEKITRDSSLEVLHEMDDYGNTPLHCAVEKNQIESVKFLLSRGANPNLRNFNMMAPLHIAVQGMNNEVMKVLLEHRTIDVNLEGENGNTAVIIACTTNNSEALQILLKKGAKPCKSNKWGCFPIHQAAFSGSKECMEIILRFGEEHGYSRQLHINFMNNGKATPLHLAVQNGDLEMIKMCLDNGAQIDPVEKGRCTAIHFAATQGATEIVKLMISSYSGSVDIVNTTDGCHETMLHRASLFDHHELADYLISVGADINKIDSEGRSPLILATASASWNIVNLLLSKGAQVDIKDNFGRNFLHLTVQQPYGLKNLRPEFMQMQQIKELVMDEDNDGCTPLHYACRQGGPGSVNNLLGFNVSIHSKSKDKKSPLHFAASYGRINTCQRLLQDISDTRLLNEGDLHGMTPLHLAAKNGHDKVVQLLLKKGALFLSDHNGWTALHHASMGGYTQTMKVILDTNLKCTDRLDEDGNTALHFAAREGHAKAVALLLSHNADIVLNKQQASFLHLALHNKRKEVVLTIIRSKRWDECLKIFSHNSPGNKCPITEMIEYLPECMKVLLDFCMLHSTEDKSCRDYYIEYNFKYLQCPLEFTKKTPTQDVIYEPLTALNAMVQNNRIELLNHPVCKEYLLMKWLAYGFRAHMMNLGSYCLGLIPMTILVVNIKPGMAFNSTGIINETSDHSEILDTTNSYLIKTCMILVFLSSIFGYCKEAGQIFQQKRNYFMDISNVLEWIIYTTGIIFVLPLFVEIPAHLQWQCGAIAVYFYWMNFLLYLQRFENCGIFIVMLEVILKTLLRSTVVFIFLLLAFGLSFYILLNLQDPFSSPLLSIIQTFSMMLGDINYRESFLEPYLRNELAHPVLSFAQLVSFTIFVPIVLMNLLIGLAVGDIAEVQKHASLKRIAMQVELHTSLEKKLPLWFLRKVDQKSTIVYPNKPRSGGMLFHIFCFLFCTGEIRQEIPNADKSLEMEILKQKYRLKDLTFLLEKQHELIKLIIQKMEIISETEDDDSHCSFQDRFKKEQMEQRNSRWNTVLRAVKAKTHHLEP

Structure (SMILES)	IC50
O=C(NCc1ccc(Cl)cc1)[C@@H]1CCCN1S(=O)(=O)c1ccc(F)cc1 [Example 20, (S)-N-(4-chlorobenzyl)-1-(4-fluorophenylsulfonyl)pyrrolidine-2-carboxamide]	12.5 µM
O=C(NCc1cc(OCC(F)(F)F)ccn1)[C@@H]1CCCN1S(=O)(=O)c1cc(F)cc(F)c1 [Example 33, (S)-1-(3,5-Difluorophenylsulfonyl)-N-((4-(2,2,2-trifluoroethoxy)pyridine-2-yl)methyl)pyrrolidine-2-carboxamide]	18.5 µM
CCCNc1cccc(CNC(=O)[C@@H]2CCCN2S(=O)(=O)c2ccc(F)cc2)c1 [Example 39, (S)-1-(4-Fluorophenylsulfonyl)-N-(3-(propylamino)benzyl)pyrrolidine-2-carboxamide]	14.1 µM
O=C(NCc1ccc(C(F)(F)F)cc1)[C@@H]1C[C@@H](F)CN1S(=O)(=O)c1ccc(F)cc1 [Example 8, (2S,4R)-4-Fluoro-1-(4-fluorophenylsulfonyl)-N-(4-(trifluoromethyl)benzyl)pyrrolidine-2-carboxamide]	14.5 µM
CCCOc1cccc(CNC(=O)[C@@H]2CCCN2S(=O)(=O)c2ccccc2)c1 [Example 6, (S)-1-(Phenylsulfonyl)-N-(3-propoxybenzyl)pyrrolidine-2-carboxamide]	5.1 µM
O=C(NCc1cc(F)cc(OC(F)F)c1)[C@@H]1C[C@@H](F)CN1S(=O)(=O)c1ccc(F)cc1 [Example 18, (2S,4R)-N-(3-(difluoromethoxy)-5-fluorobenzyl)-4-fluoro-1-(4-fluorophenylsulfonyl)pyrrolidine-2-carboxamide]	24.1 µM
CC(C)CSc1cc(CNC(=O)[C@@H]2CCCN2S(=O)(=O)c2ccc(F)cc2)ccn1 [Example 19, (S)-1-(4-Fluorophenylsulfonyl)-N-((2-(isobutylthio)pyridin-4-yl)methyl)pyrrolidine-2-carboxamide]	9.3 µM
O=C(NCc1cccc(C2CC2)c1)[C@@H]1CCCN1S(=O)(=O)c1ccccc1 [Example 22, (S)-N-(3-cyclopropylbenzyl)-1-(phenylsulfonyl)pyrrolidine-2-carboxamide]	13.6 µM
CC(C)CCOc1cncc(CNC(=O)[C@@H]2C[C@@H](F)CN2S(=O)(=O)c2ccc(F)cc2)c1 [Example 29, (2S,4R)-4-Fluoro-1-(4-fluorophenylsulfonyl)-N-((5-(isopentyloxy)pyridine-3-yl)methyl)pyrrolidine-2-carboxamide]	13.6 µM
CCc1cc(CNC(=O)[C@@H]2CCCN2S(=O)(=O)c2ccc(F)cc2)ccc1C#N [Example 5, (S)-N-(4-cyano-3-ethylbenzyl)-1-(4-fluorophenylsulfonyl)pyrrolidine-2-carboxamide]	9.8 µM
CC(C)CSc1cc(CNC(=O)[C@@H]2C[C@@H](F)CN2S(=O)(=O)c2ccc(F)cc2)ccn1 [Example 36, (2S,4R)-4-Fluoro-1-(4-fluorophenylsulfonyl)-N-((2-(isobutylthio)pyridin-4-yl)methyl)pyrrolidine-2-carboxamide]	17.4 µM
O=C(NCc1cccc(S(F)(F)(F)(F)F)c1)[C@@H]1CCCN1S(=O)(=O)c1ccccc1 [Example 25]	6.7 µM
CSCCOc1cccc(CNC(=O)[C@@H]2CCCN2S(=O)(=O)c2ccc(F)cc2)c1 [Example 1, (S)-1-(4-Fluorophenylsulfonyl)-N-(3-(2-(methylthio)ethoxy)benzyl) pyrrolidine-2-carboxamide]	4 µM
O=C(NCc1cc(C(F)(F)F)ccn1)[C@@H]1CCCN1S(=O)(=O)c1ccc(F)cc1 [Example 27, (S)-1-(4-Fluorophenylsulfonyl)-N-((4-(trifluoromethyl)pyridin-2-yl)methyl)pyrrolidine-2-carboxamide]	33.8 µM
O=C(NCc1ccnc(OCCC(F)(F)F)c1)[C@@H]1CCCN1S(=O)(=O)c1cc(F)cc(F)c1 [Example 10, (S)-1-(3,5-Difluorophenylsulfonyl)-N-((2-(3,3,3-trifluoropropoxy)pyridin-4-yl)methyl)pyrrolidine-2-carboxamide]	16.9 µM
O=C(NCc1cc(OCC(F)(F)F)ccn1)[C@@H]1CCCN1S(=O)(=O)c1ccc(F)cc1 [Example 7, (S)-1-(4-Fluorophenylsulfonyl)-N-((4-(2,2,2-trifluoroethoxy)pyridin-2-yl)methyl)pyrrolidine-2-carboxamide]	17.3 µM
O=C(NCc1cc(F)cc(OC(F)F)c1)[C@@H]1CCCN1S(=O)(=O)c1ccc(F)cc1 [Example 13, (S)-N-(3-(difluoromethoxy)-5-fluorobenzyl)-1-(4-fluorophenylsulfonyl) pyrrolidine-2-carboxamide]	11.5 µM
O=C(NCc1ccnc(OCCC(F)(F)F)c1)[C@@H]1C[C@@H](F)CN1S(=O)(=O)c1ccc(F)c(F)c1 [Example 14, (2S,4R)-1-(3,4-Difluorophenylsulfonyl)-4-fluoro-N-((2-(3,3,3-trifluoropropoxy)pyridin-4-yl)methyl)pyrrolidine-2-carboxamide]	26 µM
O=C(NCc1ccc(Br)cc1F)[C@@H]1CCCN1S(=O)(=O)c1ccc(F)cc1 [Example 9, (S)-N-(4-bromo-2-fluorobenzyl)-1-(4-fluorophenylsulfonyl)pyrrolidine-2-carboxamide]	5.3 µM

Structure (SMILES)	IC50
O=C(NCc1ccc(Br)cc1F)[C@@H]1C[C@@H](F)CN1S(=O)(=O)c1ccc(F)cc1 [Example 12, (2S,4R)-N-(4-bromo-2-fluorobenzyl)-4-fluoro-1-(4-fluorophenyl-sulfonyl)pyrrolidine-2-carboxamide]	16.3 µM
O=C(NCc1cccc(C(F)(F)F)c1)[C@@H]1CCCN1S(=O)(=O)c1ccccc1 [Example 24, (S)-1-(Phenylsulfonyl)-N-(3-(trifluoromethyl)benzyl)pyrrolidine-2-carboxamide]	17 µM
CCCc1cc(CNC(=O)[C@@H]2C[C@@H](F)CN2S(=O)(=O)c2ccccc2)ccc1C#N [Example 34, (2S,4R)-N-(4-cyano-3-propylbenzyl)-4-fluoro-1-(phenylsulfonyl) pyrrolidine-2-carboxamide]	12.6 µM
CCc1ccc(CNC(=O)[C@@H]2CCCN2S(=O)(=O)c2ccc(F)cc2)cc1 [Example 38, (S)-N-(4-ethylbenzyl)-1-(4-fluorophenylsulfonyl)pyrrolidine-2-carboxamide]	16.8 µM
CCOc1cc(F)cc(CNC(=O)[C@@H]2CCCN2S(=O)(=O)c2ccc(F)cc2)c1 [Example 15, (S)-N-(3-ethoxy-5-fluorobenzyl)-1-(4-fluorophenylsulfonyl)pyrrolidine-2-carboxamide]	5.9 µM
O=C(NCc1ccnc(OCCC(F)(F)F)c1)[C@@H]1C[C@@H](F)CN1S(=O)(=O)c1ccc(F)cc1 [Example 26, (2S,4R)-4-Fluoro-1-(4-fluorophenylsulfonyl)-N-((2-(3,3,3-trifluoropropoxy)pyridin-4-yl)methyl)pyrrolidine-2-carboxamide]	37 µM
O=C(NCc1cccc(Br)c1)[C@@H]1CCCN1S(=O)(=O)c1ccccc1 [Example 2, (S)-N-(3-bromobenzyl)-1-(phenylsulfonyl)pyrrolidine-2-carboxamide]	18.6 µM
CC(C)(C)COc1cc(CNC(=O)[C@@H]2C[C@@H](F)CN2S(=O)(=O)c2ccc(F)cc2)ccn1 [Example 4, (2S,4R)-4-Fluoro-1-(4-fluorophenylsulfonyl)-N-((2-(neopentyloxy)pyridin-4-yl)methyl)pyrrolidine-2-carboxamide]	11.3 µM
CCCC(=O)c1cccc(CNC(=O)[C@@H]2CCCN2S(=O)(=O)c2ccc(F)cc2)c1 [Example 3, (S)-N-(3-butyrylbenzyl)-1-(4-fluorophenylsulfonyl)pyrrolidine-2-carboxamide]	10.4 µM
CC(C)CCOc1cncc(CNC(=O)[C@@H]2CCCN2S(=O)(=O)c2ccc(F)cc2)c1 [Example 28, (S)-1-(4-Fluorophenylsulfonyl)-N-((5-(isopentyloxy)pyridin-3-yl)methyl) pyrrolidine-2-carboxamide]	4.1 µM
O=C(NCc1cc(OCC(F)(F)F)ccn1)[C@@H]1CCCN1S(=O)(=O)c1ccc(F)c(F)c1 [Example 32, (S)-1-(3,4-Difluorophenylsulfonyl)-N-((4-(2,2,2-trifluoroethoxy)pyridin-2-yl)methyl)pyrrolidine-2-carboxamide]	12.5 µM
O=C(NCc1ccc(Br)cc1)[C@@H]1CCCN1S(=O)(=O)c1ccc(F)cc1 [Example 37, (S)-N-(4-bromobenzyl)-1-(4-fluorophenylsulfonyl)pyrrolidine-2-carboxamide]	11.6 µM
O=C(NCc1ccc(C(F)(F)F)cc1)[C@@H]1CCCN1S(=O)(=O)c1ccccc1 [Example 17, (S)-1-(Phenylsulfonyl)-N-(4-(trifluoromethyl)benzyl)pyrrolidine-2-carboxamide]	13 µM
CC(C)COc1ccnc(CNC(=O)[C@@H]2CCCN2S(=O)(=O)c2ccc(F)cc2)c1 [Example 30, (S)-1-(4-Fluorophenylsulfonyl)-N-((4-isobutoxypyridin-2-yl)methyl) pyrrolidine-2-carboxamide]	10.5 µM
COc1cc(Cl)cc(CNC(=O)[C@@H]2CCCN2S(=O)(=O)c2ccc(F)cc2)c1 [Example 16, (S)-N-(3-chloro-5-methoxybenzyl)-1-(4-fluorophenylsulfonyl) pyrrolidine-2-carboxamide]	5.4 µM
CCCc1cc(CNC(=O)[C@@H]2CCCN2S(=O)(=O)c2ccccc2)ccc1C#N [Example 11, (S)-N-(4-cyano-3-propylbenzyl)-1-(phenylsulfonyl)pyrrolidine-2-carboxamide]	4.4 µM
CC(C)CSc1ccnc(CNC(=O)[C@@H]2CCCN2S(=O)(=O)c2ccc(F)cc2)c1 [Example 31, (S)-1-(4-Fluorophenylsulfonyl)-N-((4-(isobutylthio)pyridin-2-yl)methyl) pyrrolidine-2-carboxamide]	8.5 µM
CC(C)c1cc(CNC(=O)[C@@H]2CCCN2S(=O)(=O)c2ccccc2)ccc1C#N [Example 35, (S)-N-(4-cyano-3-isopropylbenzyl)-1-(phenylsulfonyl)pyrrolidine-2-carboxamide]	9.3 µM
O=C(NCc1cccc(C2CC2)c1)[C@@H]1CCCN1S(=O)(=O)c1ccc(F)cc1 [Example 23, (S)-N-(3-cyclopropylbenzyl)-1-(4-fluorophenylsulfonyl)pyrrolidine-2-carboxamide]	7.7 µM
